According to ChEMBL document CHEMBL5096164, “In Vivo Profiling of a Natural Alkaloid, Anatabine, in Rodents: Pharmacokinetics and Anti-Inflammatory Efficacy” (J Nat Prod, 2021):
Activity calls are given as the source filed them. The calls are words filed in the database; no cut-off is given here.

Experiments:
[1] = AUC in rat at 0.40 mg/kg via inhalation; assay type: ADME, organism-based; parameters: dose 0.4 mg/kg, route inh; details: in vivo, inhaled or intranasal, 0.4 mg/kg
[2] = AUC in Wistar rat plasma at 5 mg/kg, ip administered as bolus dose measured after 5 to 360 mins by LC-MS/MS analysis; assay type: ADME, organism-based; parameters: dose 5 mg/kg, time upper 360 min, time lower 5 min, route ip
[3] = Clearance in Wistar rat plasma at 2 mg/kg, iv administered as bolus dose measured after 5 to 360 mins by LC-MS/MS analysis; assay type: ADME, organism-based; details: time 5-360 min
Mus musculus [4] = experiment: Antiinflammatory activity in ip /LPS induced mouse model assessed as reduction in tumor necrosis factor alpha level in plasma preincubated for 1 hr followed by LPS stimulation and measured after 2 hrs by ELISA method; assay type: functional, organism-based; details: dose 1-5 mg/kg, DDE = dose-dependent effect
[5] = Antiinflammatory activity in MOG (35 to 55 residues)-induced experimental autoimmune encephalomyelitis mouse aerosol assessed as reduction in clinical score at 25 microg/L measured on 15 day (reference value: 1.9); assay type: ADME; details: inhaled_or_intranasal, 360 h, dose 25 µg/L
[6] = Bioavailability in rat at 0.06 mg/kg via inhalation; assay type: ADME, organism-based; details: in vivo, inhaled or intranasal, route inh
[7] = Cmax in C57BL/6 plasma at 2 mg/kg, ip measured after 3 to 240 mins by LC-MS/MS analysis; assay type: ADME, organism-based; parameters: time 3-240 min, dose 2 mg/kg, route ip; details: C57BL/6, mouse
[8] = Tmax in C57BL/6 plasma at 2 mg/kg, ip measured after 3 to 240 mins by LC-MS/MS analysis; assay type: ADME, organism-based; details: C57BL/6, mouse, time 3-240 min
[9] = Tmax in C57BL/6 brain at 2 mg/kg, ip measured after 3 to 240 mins by LC-MS/MS analysis; assay type: ADME, organism-based; details: C57BL/6, mouse, time 3-240 min
[10] = Half life in Wistar rat plasma at 5 mg/kg, ip administered as bolus dose measured after 5 to 360 mins by LC-MS/MS analysis; assay type: ADME, organism-based; details: time 5-360 min
[11] = Half life in C57BL/6 mouse plasma at 2 mg/kg, ip measured after 3 to 240 mins by LC-MS/MS analysis; assay type: ADME, organism-based; details: time 3-240 min
[12] = Half life in rat at 0.06 mg/kg via inhalation; assay type: ADME, organism-based; details: in vivo, inhaled or intranasal, route inh
[13] = AUC in C57BL/6 brain at 2 mg/kg, ip measured after 3 to 240 mins by LC-MS/MS analysis; assay type: ADME, organism-based; parameters: time 3-240 min, dose 2 mg/kg, route ip; details: C57BL/6, mouse
[14] = Drug uptake in MOG (35 to 55 residues)-induced experimental autoimmune encephalomyelitis unimmunized mouse plasma at 25 microg/L by LC-MS/MS analysis; assay type: ADME; details: dose 25 µg/L
[15] = AUC in Wistar rat plasma at 2 mg/kg, iv administered as bolus dose measured after 5 to 360 mins by LC-MS/MS analysis; assay type: ADME, organism-based; parameters: time lower 5 min, dose 2 mg/kg, time upper 360 min, route iv
[16] = Cmax in Wistar rat plasma at 5 mg/kg, ip administered as bolus dose measured after 5 to 360 mins by LC-MS/MS analysis; assay type: ADME, organism-based; parameters: dose 5 mg/kg, time upper 360 min, time lower 5 min, route ip
Rattus norvegicus [17] = experiment: Antiinflammatory activity in carrageenan-induced paw edema rat model assessed as inhibition of paw swelling at 5 mg/kg, ip measured at 2 hrs relative to control; assay type: functional; parameters: scale not given: the % may be the effect or the level left
Mus musculus [18] = experiment: Antiinflammatory activity LPS induced mouse model assessed as reduction in IL-7 at 1 to 5 mg/kg, ip preincubated for 1 hr followed by LPS stimulation and measured after 2 hrs by luminex xMAP bead based assay; assay type: functional, organism-based; details: dose 1-5 mg/kg, time 3.0 hrs
[19] = Cmax in rat at 2.73 mg/kg via inhalation; assay type: ADME, organism-based; parameters: dose 2.73 mg/kg, route inh; details: in vivo, inhaled or intranasal
[20] = Clearance in C57BL/6 mouse plasma at 2 mg/kg, ip measured after 3 to 240 mins by LC-MS/MS analysis; assay type: ADME, organism-based; details: time 3-240 min
Rattus norvegicus [21] = experiment: Antiinflammatory activity in carrageenan-induced paw edema rat model assessed as recovery of adverse effect at hypothermia at 5 mg/kg, ip or 20 mg/kg administered daily via whole body inhalation; assay type: functional, organism-based
[22] = Bioavailability in Wistar rat plasma at 2 mg/kg, iv administered as bolus dose measured after 5 to 360 mins by LC-MS/MS analysis; assay type: ADME, organism-based; details: time 5-360 min
[23] = Cmax in Wistar rat plasma at 2 mg/kg, iv administered as bolus dose measured after 5 to 360 mins by LC-MS/MS analysis; assay type: ADME, organism-based; parameters: dose 2 mg/kg, time upper 360 min, time lower 5 min, route iv
Mus musculus [24] = experiment: Antiinflammatory activity LPS induced mouse model assessed as reduction in IL-5 at 1 to 5 mg/kg, ip preincubated for 1 hr followed by LPS stimulation and measured after 2 hrs by luminex xMAP bead based assay; assay type: functional, organism-based; details: dose 1-5 mg/kg, time 3.0 hrs
[25] = Bioavailability in Wistar rat plasma at 5 mg/kg, ip administered as bolus dose measured after 5 to 360 mins by LC-MS/MS analysis; assay type: ADME, organism-based; details: time 5-360 min
Mus musculus [26] = experiment: Antiinflammatory activity LPS induced mouse model assessed as reduction in IL-1 beta at 1 to 5 mg/kg, ip preincubated for 1 hr followed by LPS stimulation and measured after 2 hrs by luminex xMAP bead based assay; assay type: functional, organism-based; details: dose 1-5 mg/kg, time 3.0 hrs
[27] = Volume of distribution at steady state in Wistar rat plasma at 1 mg/kg, iv administered as bolus dose measured after 5 to 360 mins by LC-MS/MS analysis; assay type: ADME, organism-based; details: time 5-360 min, read-out: Vdss
[28] = Cmax in C57BL/6 brain at 2 mg/kg, ip measured after 3 to 240 mins by LC-MS/MS analysis; assay type: ADME, organism-based; parameters: time upper 240 min, time lower 3 min, dose 2 mg/kg, route ip; details: C57BL/6, mouse
[29] = Clearance in Wistar rat plasma at 5 mg/kg, ip administered as bolus dose measured after 5 to 360 mins by LC-MS/MS analysis; assay type: ADME, organism-based; details: time 5-360 min
[30] = Drug concentration in carrageenan-induced paw edema in rat respiratory tract at 254.3 microg/L via inhalation measured for 60 mins; assay type: ADME; details: inhaled or intranasal, route inh, dose 254.3 µg/L, read-out: Drug uptake
[31] = Bioavailability in rat at 2.73 mg/kg via inhalation; assay type: ADME, organism-based; details: in vivo, inhaled or intranasal, route inh
[32] = Half life in C57BL/6 mouse brain at 2 mg/kg, ip measured after 3 to 240 mins by LC-MS/MS analysis; assay type: ADME, organism-based; details: time 3-240 min
[33] = AUC in rat at 0.06 mg/kg via inhalation; assay type: ADME, organism-based; parameters: dose 0.06 mg/kg, route inh; details: in vivo, inhaled or intranasal
[34] = Drug uptake in rat aerosol at medium dose via inhalation measured for 30 mins; assay type: ADME; details: in vivo, inhaled_or_intranasal, 0.5 h, route inh
[35] = Half life in Wistar rat plasma at 1 mg/kg, iv administered as bolus dose measured after 5 to 360 mins by LC-MS/MS analysis; assay type: ADME, organism-based; details: time 5-360 min

C1=CCC(c2cccnc2)NC1 (stereo not given)
AUC [1]: 637 ng·h/mL | AUC [2]: 6820 ng·h/mL | clearance [3]: 8.11 mL/min/kg | Activity (Mus musculus [4]): Dde | Activity [5]: 0.6 | bioavailability [6]: 76.5% | Cmax [7]: 1370 ng/mL | Tmax [8]: 1.8 min | Tmax [9]: 7.2 min | half-life [10]: 83.4 min | half-life [11]: 12.6 min | half-life [12]: 238 min | AUC [13]: 1490 ng·h/mL | Cp [14]: 531.5 ng/mL | AUC [15]: 2730 ng·h/mL | Cmax [16]: 2730 ng/mL | Activity (Rattus norvegicus [17]): 46.1% | Activity (Mus musculus [18]): Active | Cmax [19]: 780 ng/mL | CL/F [20]: 78.6 mL/min/kg | Activity (Rattus norvegicus [21]): Active | bioavailability [22]: 68.6% | Cmax [23]: 1180 ng/mL | Activity (Mus musculus [24]): Active | bioavailability [25]: 68.6% | Activity (Mus musculus [26]): Active | Vd [27]: 1.23 L/kg | Cmax [28]: 3380 ng/mL | CL/F [29]: 8.11 mL/min/kg | concentration at 1 h [30]: 5.34 ng/mL | bioavailability [31]: 56.4% | half-life [32]: 21.6 min | AUC [33]: 91.2 ng·h/mL | Drug uptake [34]: 25 µg/L | half-life [35]: 68.4 min
